Our source for the EC50, CC50 and selectivity ratio values is ChEMBL document CHEMBL3045947, “Identification of Novel Non-nucleoside Reverse Transcriptase Inhibitors Using Fragment-based Lead Generation” (Med Chem Res, 2005).

Data set [1] deals with Human immunodeficiency virus 1. As to the kind of experiment: Antiviral activity against Human immunodeficiency virus 1 IIIB infected human MT4 cells assessed as inhibition of virus-induced cytopathic effect after 7 days by MTT assay. It counts as functional, organism-based. Particulars: MT4, 168 h.
Data set [2] can be described thus: Cytotoxicity against Homo sapiens (human) MT4 cells after 5 days by MTT assay. It counts as cell-based.
The nature of data set [3]: Selectivity index, ratio of CC50 for human MT4 cells to EC50 for HIV13B. It counts as toxicity, cell-based. Particulars: read-out: Ratio CC50/EC50.

As usually defined, the EC50 is the concentration giving half of the maximal effect. Broadly, the CC50 is the concentration that lowers cell viability or growth by half. With `Nc1nc(-c2ccccc2)cc(-c2ccccc2O)n1`, in data set [1], the EC50 came to 3.22 µM. In addition, the CC50 at 120 h in data set [2] amounted to 31.3 µM. Moreover, in data set [3], the selectivity ratio amounted to 10.

On to `Cc1ccc(-c2cc(-c3ccccc3O)nc(N)n2)cc1`, for which the EC50 in data set [1] is over 125 µM. The compound further had a CC50 at 120 h in data set [2] of over 128 µM.

In the case of `Nc1nc(-c2ccc(F)cc2)cc(-c2ccccc2O)n1`, the EC50 in data set [1] was over 67.5 µM. In data set [2], this compound returned a CC50 at 120 h of 67.5 µM.

In the case of `COc1ccc(-c2cc(-c3ccccc3O)nc(N)n2)cc1`, the EC50 in data set [1] was over 92.2 µM. In data set [2], this compound gave a CC50 at 120 h of 92.2 µM.

For the compound `Nc1nc(-c2ccc(Cl)cc2)cc(-c2ccccc2O)n1`, the EC50 in data set [1] is over 74.7 µM. In data set [2], this compound showed a CC50 at 120 h of over 74.7 µM.

Regarding `Cc1cccc(-c2cc(-c3ccccc3O)nc(N)n2)c1`, in data set [1], the EC50 amounted to 3.45 µM. The compound further showed a CC50 at 120 h in data set [2] of 13 µM. Besides, the selectivity ratio in data set [3] turned out to be 4.

In the case of `COc1cccc(-c2cc(-c3ccccc3O)nc(N)n2)c1`, the 50% effective concentration (EC50) in data set [1] is over 78.3 µM. Also, in data set [2], the half-maximal cytotoxic concentration (CC50) at 120 h was over 78.3 µM.

In the case of `Nc1nc(-c2cccc(Cl)c2)cc(-c2ccccc2O)n1`, in data set [1], the EC50 is over 125 µM. Moreover, the CC50 at 120 h in data set [2] is over 125 µM.

For the compound `COc1ccc(-c2cc(-c3ccccc3O)nc(N)n2)cc1OC`, the EC50 in data set [1] was over 7.36 µM. Moreover, the CC50 at 120 h in data set [2] turned out to be 7.36 µM.

For `Nc1nc(-c2ccco2)cc(-c2ccccc2O)n1`, the EC50 in data set [1] was over 125 µM. This compound also registered a CC50 at 120 h in data set [2] of over 125 µM.

For the compound `Nc1nc(-c2cccs2)cc(-c2ccccc2O)n1`, in data set [1], the EC50 amounted to 5.59 µM. Besides, the CC50 at 120 h in data set [2] was 5.3 µM.
